From patent US6355799B1, “Substituted benzene compounds, process for their preparation, and herbicidal and defoliant compositions containing them” (ISK Americas Incorporated, priority 1997, dated 2002)

How the values were obtained:
Assay type in all cases: in vivo
[1] = system: redroot pigweed (Amaranthus retroflexus, AMARE); experiment: Pre-emerge test, greenhouse herbicide activity screening; conditions: pre-emerge, rated 14 days after application, 0 = no damage, 100 = complete death
Method in brief: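 Sandy loam pots; pre-emerge: sown 1 d pre-spray, surface-watered after, then bottom-watered. Post-emerge: sown 8–21 d before, 2–3 leaf stage, + 0.25% v/v NIS, bottom-watered. Acetone, 187 l/ha track spray, 15–1000 g ai/ha. 0–100 injury score, day 14.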

[2] = system: johnsongrass (Sorghum halepense, SORHA); experiment: Post-emerge test, greenhouse herbicide activity screening; conditions: phytotoxicity rating 0-100 (0 no damage, 100 complete death), 14 days after application
Method in brief: (§1)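 Herbicidal damage is scored 0 (none) to 100 (complete plant death) two weeks after a simulated field spray. Rates span 15–1000 g ai/ha, delivered in acetone at 187 l/ha. For post-emergence treatments, plants have 2–3 leaves and the spray carries 0.25% v/v non-ionic surfactant.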

[3] = system: sicklepod (Cassia obtusifolia, CASOB); experiment: as above; conditions: phytotoxicity rating 0-100 (0 no damage, 100 complete death), 14 days after application
Method in brief: as §1

[4] = system: ivyleaf morningglory (Ipomoea hederacea, IPOHE); experiment: as above; conditions: phytotoxicity rating 0-100 (0 no damage, 100 complete death), 14 days after application
Method in brief: as §1

[5] = system: green foxtail (Setaria viridis, SETVI); experiment: as above; conditions: phytotoxicity rating 0-100 (0 no damage, 100 complete death), 14 days after application
Method in brief: as §1

[6] = system: common ragweed (Ambrosia artemisizfolia L., AMBEL); experiment: as above; conditions: phytotoxicity rating 0-100 (0 no damage, 100 complete death), 14 days after application
Method in brief: as §1

[7] = system: lambsquarters (Chenopodium album, CHEAL); experiment: as above; conditions: phytotoxicity rating 0-100 (0 no damage, 100 complete death), 14 days after application
Method in brief: as §1

[8] = system: barnyardgrass (Echinochloa crus-galli, ECHCG); experiment: as above; conditions: phytotoxicity rating 0-100 (0 no damage, 100 complete death), 14 days after application
Method in brief: as §1

[9] = system: velvetleaf (Abutilon theophrasti, ABUTH); experiment: as above; conditions: phytotoxicity rating 0-100 (0 no damage, 100 complete death), 14 days after application
Method in brief: as §1

[10] = system: large crabgrass (Digitaria sanguinalis, DIGSA); experiment: as above; conditions: phytotoxicity rating 0-100 (0 no damage, 100 complete death), 14 days after application
Method in brief: as §1

[11] = system: redroot pigweed (Amaranthus retroflexus, AMARE); experiment: as above; conditions: phytotoxicity rating 0-100 (0 no damage, 100 complete death), 14 days after application
Method in brief: as §1

[12] = system: johnsongrass (Sorghum halepense, SORHA); experiment: Pre-emerge test, greenhouse herbicide activity screening; conditions: pre-emerge, rated 14 days after application, 0 = no damage, 100 = complete death
Method in brief: (§2)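 Plants grown in 10 cm pots of sandy loam mix received acetone-dissolved compounds through a moving flat-fan nozzle. Doses ranged from 15 to 1000 g ai/ha. Pre-emerge pots were seeded one day earlier, post-emerge pots 8–21 days earlier. Fourteen days on, each pot was graded 0–100 for damage.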

[13] = system: sicklepod (Cassia obtusifolia, CASOB); experiment: as above; conditions: pre-emerge, rated 14 days after application, 0 = no damage, 100 = complete death
Method in brief: as §2

[14] = system: ivyleaf morningglory (Ipomoea hederacea, IPOHE); experiment: as above; conditions: pre-emerge, rated 14 days after application, 0 = no damage, 100 = complete death
Method in brief: as §2

[15] = system: green foxtail (Setaria viridis, SETVI); experiment: as above; conditions: pre-emerge, rated 14 days after application, 0 = no damage, 100 = complete death
Method in brief: as §2

[16] = system: common ragweed (Ambrosia artemisizfolia L., AMBEL); experiment: as above; conditions: pre-emerge, rated 14 days after application, 0 = no damage, 100 = complete death
Method in brief: as §2

[17] = system: lambsquarters (Chenopodium album, CHEAL); experiment: as above; conditions: pre-emerge, rated 14 days after application, 0 = no damage, 100 = complete death
Method in brief: as §2

[18] = system: barnyardgrass (Echinochloa crus-galli, ECHCG); experiment: as above; conditions: pre-emerge, rated 14 days after application, 0 = no damage, 100 = complete death
Method in brief: as §2

[19] = system: velvetleaf (Abutilon theophrasti, ABUTH); experiment: as above; conditions: pre-emerge, rated 14 days after application, 0 = no damage, 100 = complete death
Method in brief: as §2

[20] = system: large crabgrass (Digitaria sanguinalis, DIGSA); experiment: as above; conditions: pre-emerge, rated 14 days after application, 0 = no damage, 100 = complete death
Method in brief: as §2

[21] = system: upland rice (Oryza sp., var. Tebonnet, RICE); experiment: Pre-emerge test, crop safety; conditions: pre-emerge, rated 14 days after application, 0 = no damage, 100 = complete death
Method in brief: (§3)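 Compounds in acetone were track-sprayed at 15-1000 g ai/ha (187 l/ha) on sandy loam pots: pre-emerge one day after seeding, post-emerge at 2-3 leaf stage with 0.25% v/v non-ionic surfactant. Phytotoxicity was rated 14 days later on a 0 (no damage) to 100 (complete death) scale.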

[22] = system: field corn (Zea mays L., var. Dekalb 535, CORN); experiment: Pre-emerge test, crop safety; conditions: pre-emerge, rated 14 days after application, 0 = no damage, 100 = complete death
Method in brief: as §3

[23] = system: upland rice (Oryza sp., var. Tebonnet, RICE); experiment: Post-emerge test, crop safety; conditions: phytotoxicity rating 0-100 (0 no damage, 100 complete death), 14 days after application
Method in brief: (§4)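 Each test used a mechanized track sprayer delivering 187 l/ha of acetone solution at 15–1000 g ai/ha. Post-emerge foliage at 2–3 leaves was treated with added 0.25% v/v non-ionic surfactant and bottom-watered only. Injury was assessed on day 14, where 100 means total kill.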

[24] = system: field corn (Zea mays L., var. Dekalb 535, CORN); experiment: Post-emerge test, crop safety; conditions: phytotoxicity rating 0-100 (0 no damage, 100 complete death), 14 days after application
Method in brief: as §4

COc1c(Cl)cc(F)c(-n2c(=O)c([N+](=O)[O-])c(C(F)(F)F)n(C)c2=O)c1[N+](=O)[O-] [Compound 1-9]
Pre-emerge Herbicidal Activity AMARE (phytotoxicity rating, scale 0-100) ([1]; 63 g ai/ha): 100 | Post-emerge Herbicidal Activity SORHA ([2]; 63 g ai/ha): 90 | Post-emerge Herbicidal Activity CASOB ([3]; 63 g ai/ha): 90 | Post-emerge Herbicidal Activity IPOHE ([4]; 63 g ai/ha): 100 | Post-emerge Herbicidal Activity SETVI ([5]; 63 g ai/ha): 90 | Post-emerge Herbicidal Activity AMBEL ([6]; 63 g ai/ha): 90 | Post-emerge Herbicidal Activity CHEAL ([7]; 63 g ai/ha): 100 | Post-emerge Herbicidal Activity ECHCG ([8]; 63 g ai/ha): 70 | Post-emerge Herbicidal Activity ABUTH ([9]; 63 g ai/ha): 100 | Post-emerge Herbicidal Activity DIGSA ([10]; 63 g ai/ha): 90 | Post-emerge Herbicidal Activity AMARE ([11]; 63 g ai/ha): 100 | Pre-emerge Herbicidal Activity SORHA (phytotoxicity rating, scale 0-100) ([12]; 63 g ai/ha): 100 | Pre-emerge Herbicidal Activity CASOB (phytotoxicity rating, scale 0-100) ([13]; 63 g ai/ha): 100 | Pre-emerge Herbicidal Activity IPOHE (phytotoxicity rating, scale 0-100) ([14]; 63 g ai/ha): 100 | Pre-emerge Herbicidal Activity SETVI (phytotoxicity rating, scale 0-100) ([15]; 63 g ai/ha): 100 | Pre-emerge Herbicidal Activity AMBEL (phytotoxicity rating, scale 0-100) ([16]; 63 g ai/ha): 100 | Pre-emerge Herbicidal Activity CHEAL (phytotoxicity rating, scale 0-100) ([17]; 63 g ai/ha): 100 | Pre-emerge Herbicidal Activity ECHCG (phytotoxicity rating, scale 0-100) ([18]; 63 g ai/ha): 100 | Pre-emerge Herbicidal Activity ABUTH (phytotoxicity rating, scale 0-100) ([19]; 63 g ai/ha): 100 | Pre-emerge Herbicidal Activity DIGSA (phytotoxicity rating, scale 0-100) ([20]; 63 g ai/ha): 100 | Pre-emerge crop damage RICE (phytotoxicity rating, scale 0-100) ([21]; 63 g ai/ha): 95 | Pre-emerge crop damage CORN (phytotoxicity rating, scale 0-100) ([22]; 63 g ai/ha): 90 | Post-emerge Herbicidal Activity RICE (crop damage) ([23]; 63 g ai/ha): 40 | Post-emerge Herbicidal Activity CORN (crop damage) ([24]; 63 g ai/ha): 30

COc1c(Cl)cc(F)c(-n2c(=O)c(N)c(C(F)(F)F)n(C)c2=O)c1N [Compound 1-10]
Pre-emerge Herbicidal Activity AMARE (phytotoxicity rating, scale 0-100) ([1]; 63 g ai/ha): 70 | Pre-emerge Herbicidal Activity AMARE (phytotoxicity rating, scale 0-100) ([1]; 250 g ai/ha): 100 | Post-emerge Herbicidal Activity SORHA ([2]; 63 g ai/ha): 0 | Post-emerge Herbicidal Activity SORHA ([2]; 250 g ai/ha): 0 | Post-emerge Herbicidal Activity CASOB ([3]; 63 g ai/ha): 0 | Post-emerge Herbicidal Activity CASOB ([3]; 250 g ai/ha): 10 | Post-emerge Herbicidal Activity IPOHE ([4]; 63 g ai/ha): 20 | Post-emerge Herbicidal Activity IPOHE ([4]; 250 g ai/ha): 70 | Post-emerge Herbicidal Activity SETVI ([5]; 63 g ai/ha): 0 | Post-emerge Herbicidal Activity SETVI ([5]; 250 g ai/ha): 0 | Post-emerge Herbicidal Activity AMBEL ([6]; 63 g ai/ha): 0 | Post-emerge Herbicidal Activity AMBEL ([6]; 250 g ai/ha): 30 | Post-emerge Herbicidal Activity CHEAL ([7]; 63 g ai/ha): 10 | Post-emerge Herbicidal Activity CHEAL ([7]; 250 g ai/ha): 50 | Post-emerge Herbicidal Activity ECHCG ([8]; 63 g ai/ha): 0 | Post-emerge Herbicidal Activity ECHCG ([8]; 250 g ai/ha): 0 | Post-emerge Herbicidal Activity ABUTH ([9]; 63 g ai/ha): 30 | Post-emerge Herbicidal Activity ABUTH ([9]; 250 g ai/ha): 90 | Post-emerge Herbicidal Activity DIGSA ([10]; 63 g ai/ha): 0 | Post-emerge Herbicidal Activity DIGSA ([10]; 250 g ai/ha): 0 | Post-emerge Herbicidal Activity AMARE ([11]; 63 g ai/ha): 10 | Post-emerge Herbicidal Activity AMARE ([11]; 250 g ai/ha): 30 | Pre-emerge Herbicidal Activity SORHA (phytotoxicity rating, scale 0-100) ([12]; 63 g ai/ha): 0 | Pre-emerge Herbicidal Activity SORHA (phytotoxicity rating, scale 0-100) ([12]; 250 g ai/ha): 0 | Pre-emerge Herbicidal Activity CASOB (phytotoxicity rating, scale 0-100) ([13]; 63 g ai/ha): 20 | Pre-emerge Herbicidal Activity CASOB (phytotoxicity rating, scale 0-100) ([13]; 250 g ai/ha): 50 | Pre-emerge Herbicidal Activity IPOHE (phytotoxicity rating, scale 0-100) ([14]; 63 g ai/ha): 0 | Pre-emerge Herbicidal Activity IPOHE (phytotoxicity rating, scale 0-100) ([14]; 250 g ai/ha): 60 | Pre-emerge Herbicidal Activity SETVI (phytotoxicity rating, scale 0-100) ([15]; 63 g ai/ha): 0 | Pre-emerge Herbicidal Activity SETVI (phytotoxicity rating, scale 0-100) ([15]; 250 g ai/ha): 100 | Pre-emerge Herbicidal Activity AMBEL (phytotoxicity rating, scale 0-100) ([16]; 63 g ai/ha): 0 | Pre-emerge Herbicidal Activity AMBEL (phytotoxicity rating, scale 0-100) ([16]; 250 g ai/ha): 60 | Pre-emerge Herbicidal Activity CHEAL (phytotoxicity rating, scale 0-100) ([17]; 63 g ai/ha): 30 | Pre-emerge Herbicidal Activity CHEAL (phytotoxicity rating, scale 0-100) ([17]; 250 g ai/ha): 100 | Pre-emerge Herbicidal Activity ECHCG (phytotoxicity rating, scale 0-100) ([18]; 63 g ai/ha): 0 | Pre-emerge Herbicidal Activity ECHCG (phytotoxicity rating, scale 0-100) ([18]; 250 g ai/ha): 0 | Pre-emerge Herbicidal Activity ABUTH (phytotoxicity rating, scale 0-100) ([19]; 63 g ai/ha): 100 | Pre-emerge Herbicidal Activity ABUTH (phytotoxicity rating, scale 0-100) ([19]; 250 g ai/ha): 100 | Pre-emerge Herbicidal Activity DIGSA (phytotoxicity rating, scale 0-100) ([20]; 63 g ai/ha): 0 | Pre-emerge Herbicidal Activity DIGSA (phytotoxicity rating, scale 0-100) ([20]; 250 g ai/ha): 30 | Pre-emerge crop damage RICE (phytotoxicity rating, scale 0-100) ([21]; 63 g ai/ha): 0 | Pre-emerge crop damage RICE (phytotoxicity rating, scale 0-100) ([21]; 250 g ai/ha): 0 | Pre-emerge crop damage CORN (phytotoxicity rating, scale 0-100) ([22]; 63 g ai/ha): 0 | Pre-emerge crop damage CORN (phytotoxicity rating, scale 0-100) ([22]; 250 g ai/ha): 0 | Post-emerge Herbicidal Activity RICE (crop damage) ([23]; 63 g ai/ha): 0 | Post-emerge Herbicidal Activity RICE (crop damage) ([23]; 250 g ai/ha): 0 | Post-emerge Herbicidal Activity CORN (crop damage) ([24]; 63 g ai/ha): 0 | Post-emerge Herbicidal Activity CORN (crop damage) ([24]; 250 g ai/ha): 0
